From US20250235543A1, “MODIFIED PROTEINS AND PROTEIN DEGRADERS” (Cullgen (Shanghai), Inc., priority 2021, published 2025)
Like-named read-outs stand apart in the source and are kept apart here.

Legend:
cyclin D1 = test: Cyclin D1 percentage degradation in Calu-1 cells (immunoblotting); type: cell-based; conditions: 200 nM, 16 hours
Method in brief: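 Cyclin D1 degradation was assessed by western blot. Clarified lysates, obtained by RIPA lysis with inhibitors and centrifugation at 13,000 rpm, were normalized by BCA protein assay and separated by SDS-PAGE. Bands were detected with Western ECL Substrate on a Bio-Rad ChemiDoc MP Imaging system and quantified in Image Lab software to derive percentage degradation.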

CDK4 = molecular target: T1, CDK4 (Homo sapiens, UniProt P11802); test: CDK4 percentage degradation in Calu-1 cells (immunoblotting); type: cell-based; conditions: read-out: CDK4 Degradation (200 nM)
T1 construct: endogenous in cells; host or cells: Calu-1
Method in brief: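 CDK4 degradation was measured by immunoblotting. Cells were washed in cold PBS and lysed in RIPA buffer with inhibitors for 30 min at 4° C., then spun at 13,000 rpm to clear. After BCA protein determination, lysates were heated at 99° C. for 5 min in Laemmli buffer, resolved on SDS-PAGE, imaged on a ChemiDoc MP with ECL substrate, and band intensities quantified.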

T1 sequence (P11802 2-303 limits assumed): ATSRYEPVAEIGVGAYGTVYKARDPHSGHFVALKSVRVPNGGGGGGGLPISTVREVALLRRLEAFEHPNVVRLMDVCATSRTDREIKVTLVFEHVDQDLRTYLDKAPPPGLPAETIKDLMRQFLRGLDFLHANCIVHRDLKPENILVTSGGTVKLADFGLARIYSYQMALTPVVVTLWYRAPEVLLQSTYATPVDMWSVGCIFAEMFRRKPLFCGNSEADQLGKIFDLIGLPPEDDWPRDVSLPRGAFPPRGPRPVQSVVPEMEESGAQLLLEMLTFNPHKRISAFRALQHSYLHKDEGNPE
T1 sequence (P24385 whole entry partner): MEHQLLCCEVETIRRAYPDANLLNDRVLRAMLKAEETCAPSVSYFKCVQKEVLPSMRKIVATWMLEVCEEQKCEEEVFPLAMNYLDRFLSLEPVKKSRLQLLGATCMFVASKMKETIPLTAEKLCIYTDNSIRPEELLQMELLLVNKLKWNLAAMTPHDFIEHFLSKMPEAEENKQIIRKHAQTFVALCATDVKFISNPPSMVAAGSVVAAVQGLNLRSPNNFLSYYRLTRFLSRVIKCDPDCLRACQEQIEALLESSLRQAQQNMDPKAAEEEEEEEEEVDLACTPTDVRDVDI
T1 sequence (Q16531 2-1140 limits assumed, further chain): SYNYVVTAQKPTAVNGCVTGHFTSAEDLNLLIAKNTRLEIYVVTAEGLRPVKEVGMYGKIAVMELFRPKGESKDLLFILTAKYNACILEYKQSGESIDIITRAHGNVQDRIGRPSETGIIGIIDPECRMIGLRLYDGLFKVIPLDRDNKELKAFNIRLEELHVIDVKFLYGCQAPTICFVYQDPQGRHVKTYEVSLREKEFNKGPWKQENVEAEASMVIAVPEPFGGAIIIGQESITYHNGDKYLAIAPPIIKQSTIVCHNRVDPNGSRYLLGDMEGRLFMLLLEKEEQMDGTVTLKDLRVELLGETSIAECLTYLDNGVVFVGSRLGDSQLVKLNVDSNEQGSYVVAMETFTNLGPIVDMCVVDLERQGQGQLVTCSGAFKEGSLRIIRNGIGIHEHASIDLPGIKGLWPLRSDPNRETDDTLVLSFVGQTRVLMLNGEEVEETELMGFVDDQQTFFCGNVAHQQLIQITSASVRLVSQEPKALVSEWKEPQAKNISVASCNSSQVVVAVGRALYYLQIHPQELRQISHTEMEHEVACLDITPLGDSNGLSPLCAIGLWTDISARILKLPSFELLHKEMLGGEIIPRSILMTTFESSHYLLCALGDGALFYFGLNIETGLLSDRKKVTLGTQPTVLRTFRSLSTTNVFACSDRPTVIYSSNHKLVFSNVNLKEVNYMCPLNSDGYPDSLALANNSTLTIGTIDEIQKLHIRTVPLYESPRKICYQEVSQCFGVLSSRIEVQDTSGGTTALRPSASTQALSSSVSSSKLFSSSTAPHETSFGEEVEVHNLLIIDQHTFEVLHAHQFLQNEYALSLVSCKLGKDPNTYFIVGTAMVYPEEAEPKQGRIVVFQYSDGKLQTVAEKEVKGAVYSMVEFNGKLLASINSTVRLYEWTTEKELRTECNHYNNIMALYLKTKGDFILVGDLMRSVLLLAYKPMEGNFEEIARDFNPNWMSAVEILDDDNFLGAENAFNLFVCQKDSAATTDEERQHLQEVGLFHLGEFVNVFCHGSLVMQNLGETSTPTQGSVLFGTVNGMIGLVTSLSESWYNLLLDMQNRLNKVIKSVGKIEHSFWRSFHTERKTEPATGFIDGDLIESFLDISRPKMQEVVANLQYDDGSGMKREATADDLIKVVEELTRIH

Structure (SMILES) | inhibition at 0.2 µM (CDK4; Calu-1 cells, 200 nM, 16 hours) | CyclinD1 Degradation (200 nM) (cyclin D1) | inhibition at 0.2 µM (CDK4; Calu-1, 16 h)
COC(=O)c1cnc(NC(=O)c2ccc(NCCOCCOCCOCCOCCOCCNC(=O)CN3CCN(c4ccc(Nc5ncc6c(C)c(C(C)=O)c(=O)n(C7CCCC7)c6n5)nc4)CC3)cc2C)s1 [CPD-032, Methyl 2-(4-((1-(4-(6-((6-acetyl-8-cyclopentyl-5-methyl-7-oxo-7,8-dihydropyrido[2,3-d]pyrimidin-2-yl)amino)pyridin-3-yl)piperazin-1-yl)-2-oxo-6,9,12,15,18-pentaoxa-3-azaicosan-20-yl)amino)-2-methylbenzamido)thiazole-5-carboxylate] | < 30% | D (protein percentage degradation <30%) | 
CC(=O)c1c(C)c2cnc(Nc3ccc(N4CCN(C(=O)CCOCCOCCC(=O)Nc5ccccc5C(=O)Nc5nc(C)c(C)s5)CC4)cn3)nc2n(C2CCCC2)c1=O [CPD-128, 2-(3-(2-(3-(4-(6-((6-Acetyl-8-cyclopentyl-5-methyl-7-oxo-7,8-dihydropyrido[2,3-d]pyrimidin-2-yl)amino)pyridin-3-yl)piperazin-1-yl)-3-oxopropoxy)ethoxy)propanamido)-N-(4,5-dimethylthiazol-2-yl)benzamide] |  | C (protein percentage degradation <50%, and >=30%) | 50 to 80%
CC(=O)c1c(C)c2cnc(Nc3ccc(N4CCN(CC(=O)NCCOCCOCCOCCOCCOCCNc5ccc(C(=O)Nc6ncc(F)s6)c(C)c5)CC4)cn3)nc2n(C2CCCC2)c1=O [CPD-028, 4-((1-(4-(6-((6-Acetyl-8-cyclopentyl-5-methyl-7-oxo-7,8-dihydropyrido[2,3-d]pyrimidin-2-yl)amino)pyridin-3-yl)piperazin-1-yl)-2-oxo-6,9,12,15,18-pentaoxa-3-azaicosan-20-yl)amino)-N-(5-fluorothiazol-2-yl)-2-methylbenzamide] | < 30% | D (protein percentage degradation <30%) | 

The next lines start with results.

inhibition at 0.2 µM (CDK4; Calu-1 cells, 200 nM, 16 hours) | Structure (SMILES) | CyclinD1 Degradation (200 nM) (cyclin D1) | inhibition at 0.2 µM (CDK4; Calu-1, 16 h)
50 to 80% | CC(=O)c1c(C)c2cnc(Nc3ccc(N4CCN(CC(=O)NCCOCCOCCC(=O)Nc5ccccc5C(=O)Nc5ccc(C(F)(F)F)cn5)CC4)cn3)nc2n(C2CCCC2)c1=O [CPD-084, 2-(3-(2-(2-(2-(4-(6-((6-Acetyl-8-cyclopentyl-5-methyl-7-oxo-7,8-dihydropyrido[2,3-d]pyrimidin-2-yl)amino)pyridin-3-yl)piperazin-1-yl)acetamido)ethoxy)ethoxy)propanamido)-N-(5-(trifluoromethyl)pyridin-2-yl)benzamide] | A (protein percentage degradation >=80%) | 
< 30% | CC(=O)c1c(C)c2cnc(Nc3ccc(N4CCN(CC(=O)NCC(=O)Nc5ccccc5C(=O)Nc5nc(C)c(C)s5)CC4)cn3)nc2n(C2CCCC2)c1=O [CPD-180, 2-(2-(2-(4-(6-((6-Acetyl-8-cyclopentyl-5-methyl-7-oxo-7,8-dihydropyrido[2,3-d]pyrimidin-2-yl)amino)pyridin-3-yl)piperazin-1-yl)acetamido)acetamido)-N-(4,5-dimethylthiazol-2-yl)benzamide] | D (protein percentage degradation <30%) | 
< 30% | CC(=O)c1c(C)c2cnc(Nc3ccc(N4CCN(CC(=O)NCCOCCOCCC(=O)Nc5ccccc5C(=O)Nc5nnc(C)s5)CC4)cn3)nc2n(C2CCCC2)c1=O [CPD-367, 2-(3-(2-(2-(2-(4-(6-((6-Acetyl-8-cyclopentyl-5-methyl-7-oxo-7,8-dihydropyrido[2,3-d]pyrimidin-2-yl)amino)pyridin-3-yl)piperazin-1-yl)acetamido)ethoxy)ethoxy)propanamido)-N-(5-methyl-1,3,4-thiadiazol-2-yl)benzamide] | D (protein percentage degradation <30%) | 
